Data published in patent US12643882B2, “Inhibitors of human respiratory syncytial virus and metapneumovirus” (priority 2022, dated 2026).
Read-outs that look alike come from different tables or passages of the source.

How the values were obtained:
hMPV-GFP virus = experiment: microbe, parasite or virus in culture; format: cell-based, human metapneumovirus
Method in brief: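 VERO cells infected with GFP-expressing hMPV at MOI 1.25 were incubated 48 h at 37 °C with compound in 10-point 3-fold dilutions (typically 40,300–2 nM final). GFP-positive cells were counted by imaging. Same-well CellTiter-Glo gave cytotoxicity, and IC50/CC50 came from 4-parameter logistic fits.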

RSV-A2-GFP virus = experiment: microbe, parasite or virus in culture; format: cell-based, Human Respiratory Syncytial Virus
Method in brief: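 Assay-ready frozen Calu-1 cells at 20,000 cells/mL were infected with recombinant RSV-A2-GFP (MOI 1.2) in DMEM with 2% FBS. Cells were exposed to 10-point 3-fold compound dilutions for 96 h at 37° C. GFP-positive cells were counted by imaging, with same-well CellTiter-Glo for cytotoxicity, and IC50 and CC50 came from 4-parameter logistic fits.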

[1] = VERO cells infected with hMPV-GFP, 48 hrs, GFP-expressing cells counted, read-out: hMPV EC50
[2] = Calu-1 cells infected with RSV-A2-GFP, 96 hrs, GFP-expressing cells counted, read-out: RSV EC50
[3] = human metapneumovirus, Vero, 48 h, read-out: hMPV EC50, VERO cells infected with hMPV-GFP, 48 hrs, GFP-expressing cells counted
[4] = human respiratory syncytial virus, Calu-1, 96 h, read-out: RSV EC50, Calu-1 cells infected with RSV-A2-GFP, 96 hrs, GFP-expressing cells counted

| Compound | EC50 (hMPV-GFP virus; [1]) | EC50 (RSV-A2-GFP virus; [2]) | EC50 (hMPV-GFP virus; [3]) | EC50 (RSV-A2-GFP virus; [4]) |
| --- | --- | --- | --- | --- |
| Cn1nc(-c2ncccn2)cc1C(=O)N1C[C@@H]2[C@H](C1)[C@H]2Oc1cc(C(C)(C)N)cc(-c2ccc3c(c2)CC3(F)F)n1 [Example 98, ((1R,5S,6s)-6-((4-(2-aminopropan-2-yl)-6-(7,7-difluorobicyclo[4.2.0]octa-1(6),2,4-trien-3-yl)pyridin-2-yl)oxy)-3-azabicyclo[3.1.0]hexan-3-yl)(1-methyl-3-(pyrimidin-2-yl)-1H-pyrazol-5-yl)methanone] | > 100 nM | < 10 nM | – | – |
| Cc1nn(-c2ncccn2)cc1C(=O)N1C[C@@H]2[C@H](C1)[C@H]2Oc1cc(C(C)(C)N)cc(-c2ccc3c(c2)CC3(F)F)n1 [Example 99, ((1R,5S,6s)-6-((4-(2-aminopropan-2-yl)-6-(7,7-difluorobicyclo[4.2.0]octa-1(6),2,4-trien-3-yl)pyridin-2-yl)oxy)-3-azabicyclo[3.1.0]hexan-3-yl)(3-methyl-1-(pyrimidin-2-yl)-1H-pyrazol-4-yl)methanone] | > 100 nM | < 10 nM | – | – |
| Cc1nn(-c2ncccn2)cc1C(=O)N1C[C@@H]2[C@H](C1)[C@H]2Oc1cc(C(C)(C)N)cc(N2CCC(C)(C)CC2)n1 [Example 100, ((1R,5S,6s)-6-((4-(2-aminopropan-2-yl)-6-(4,4-dimethylpiperidin-1-yl)pyridin-2-yl)oxy)-3-azabicyclo[3.1.0]hexan-3-yl)(3-methyl-1-(pyrimidin-2-yl)-1H-pyrazol-4-yl)methanone] | > 100 nM | < 10 nM | – | – |
| CC1(C)CCN(c2cc(C(C)(C)N)cc(O[C@H]3[C@@H]4CN(C(=O)c5cn(-c6ncccn6)nc5C(F)F)C[C@@H]43)n2)CC1 [Example 101, ((1R,5S,6s)-6-((4-(2-aminopropan-2-yl)-6-(4,4-dimethylpiperidin-1-yl)pyridin-2-yl)oxy)-3-azabicyclo[3.1.0]hexan-3-yl)(3-(difluoromethyl)-1-(pyrimidin-2-yl)-1H-pyrazol-4-yl)methanone] | > 100 nM | < 10 nM | – | – |
| Cc1nn(-c2ncccn2)cc1C(=O)N1C[C@@H]2[C@H](C1)[C@H]2Oc1cc(C(C)(C)N)cc(N2CCC(C(F)(F)F)CC2)n1 [Example 102, ((1R,5S,6s)-6-((4-(2-aminopropan-2-yl)-6-(4-(trifluoromethyl)piperidin-1-yl)pyridin-2-yl)oxy)-3-azabicyclo[3.1.0]hexan-3-yl)(3-methyl-1-(pyrimidin-2-yl)-1H-pyrazol-4-yl)methanone] | > 100 nM | < 10 nM | – | – |
| Cc1nc(-c2ncccn2)sc1C(=O)N1C[C@@H]2[C@H](C1)[C@H]2Oc1cc(-c2ccc(F)cc2)nc(C(C)(C)N)c1 [Example 114, ((1R,5S,6s)-6-((2-(2-aminopropan-2-yl)-6-(4-fluorophenyl)pyridin-4-yl)oxy)-3-azabicyclo[3.1.0]hexan-3-yl)(4-methyl-2-(pyrimidin-2-yl)thiazol-5-yl)methanone] | – | – | > 100 nM | < 10 nM |
| Cc1nc(-c2ncccn2)sc1C(=O)N1C[C@@H]2[C@H](C1)[C@H]2Oc1cc(-c2ccc(F)cc2)cc(C(C)(C)N)n1 [Example 115, ((1R,5S,6s)-6-((6-(2-aminopropan-2-yl)-4-(4-fluorophenyl)pyridin-2-yl)oxy)-3-azabicyclo[3.1.0]hexan-3-yl)(4-methyl-2-(pyrimidin-2-yl)thiazol-5-yl)methanone] | – | – | > 100 nM | < 10 nM |
| CCC(N)c1cc(O[C@H]2[C@@H]3CN(C(=O)c4cn(-c5ncccn5)nc4C)C[C@@H]32)nc(-c2ccc(F)cc2)c1 (stereo partly drawn) [Example 117A, ent-((1R,5S,6s)-6-((4-(1-aminopropyl)-6-(4-fluorophenyl)pyridin-2-yl)oxy)-3-azabicyclo[3.1.0]hexan-3-yl)(3-methyl-1-(pyrimidin-2-yl)-1H-pyrazol-4-yl)methanone] | > 100 nM | < 10 nM | – | – |
| Cc1nn(-c2ncccn2)cc1C(=O)N1C[C@@H]2[C@H](C1)[C@H]2Oc1cc(C(N)C(C)C)cc(-c2ccc(F)cc2)n1 (stereo partly drawn) [Example 118A, ent-((1R,5S,6s)-6-((4-(1-amino-2-methylpropyl)-6-(4-fluorophenyl)pyridin-2-yl)oxy)-3-azabicyclo[3.1.0]hexan-3-yl)(3-methyl-1-(pyrimidin-2-yl)-1H-pyrazol-4-yl)methanone] | > 100 nM | < 10 nM | – | – |
| Cc1nn(-c2ncccn2)cc1C(=O)N1C[C@@H]2[C@H](C1)[C@H]2Oc1cc(C(C)(C)N)c(F)c(-c2ccc(F)cc2)n1 [Example 119, ((1R,5S,6s)-6-((4-(2-aminopropan-2-yl)-5-fluoro-6-(4-fluorophenyl)pyridin-2-yl)oxy)-3-azabicyclo[3.1.0]hexan-3-yl)(3-methyl-1-(pyrimidin-2-yl)-1H-pyrazol-4-yl)methanone] | – | – | > 100 nM | < 10 nM |
| Cc1nn(-c2ncccn2)cc1C(=O)N1C[C@@H]2[C@H](C1)[C@H]2Oc1cc(C(C)(C)N)c(Cl)c(-c2ccc(F)cc2)n1 [Example 120, ((1R,5S,6s)-6-((4-(2-aminopropan-2-yl)-5-chloro-6-(4-fluorophenyl)pyridin-2-yl)oxy)-3-azabicyclo[3.1.0]hexan-3-yl)(3-methyl-1-(pyrimidin-2-yl)-1H-pyrazol-4-yl)methanone] | – | – | > 100 nM | < 10 nM |
| COc1nn(-c2ncccn2)cc1C(=O)N1C[C@@H]2[C@H](C1)[C@H]2Oc1cc(C(C)(C)N)c(Cl)c(-c2ccc(F)cc2)n1 [Example 121, ((1R,5S,6s)-6-((4-(2-aminopropan-2-yl)-5-chloro-6-(4-fluorophenyl)pyridin-2-yl)oxy)-3-azabicyclo[3.1.0]hexan-3-yl)(3-methoxy-1-(pyrimidin-2-yl)-1H-pyrazol-4-yl)methanone] | > 100 nM | < 10 nM | – | – |
| COc1nn(-c2ncccn2)cc1C(=O)N1C[C@@H]2[C@H](C1)[C@H]2Oc1cc(C(C)(C)N)cc(N2CCC(C)(C)CC2)n1 [Example 122, ((1R,5S,6s)-6-((4-(2-aminopropan-2-yl)-6-(4,4-dimethylpiperidin-1-yl)pyridin-2-yl)oxy)-3-azabicyclo[3.1.0]hexan-3-yl)(3-methoxy-1-(pyrimidin-2-yl)-1H-pyrazol-4-yl)methanone] | – | – | > 100 nM | < 10 nM |
| Cc1nc(-c2ncccn2)sc1C(=O)N1C[C@@H]2[C@H](C1)[C@H]2Oc1cc(C(C)(C)N)cc(N2CCC(C)(C)CC2)n1 [Example 123, ((1R,5S,6s)-6-((4-(2-aminopropan-2-yl)-6-(4,4-dimethylpiperidin-1-yl)pyridin-2-yl)oxy)-3-azabicyclo[3.1.0]hexan-3-yl)(4-methyl-2-(pyrimidin-2-yl)thiazol-5-yl)methanone] | > 100 nM | < 10 nM | – | – |
| CCc1nn(-c2ncccn2)cc1C(=O)N1C[C@@H]2[C@H](C1)[C@H]2Oc1cc(C(C)(C)N)cc(N2CCC(C)(C)CC2)n1 [Example 124, ((1R,5S,6s)-6-((4-(2-aminopropan-2-yl)-6-(4,4-dimethylpiperidin-1-yl)pyridin-2-yl)oxy)-3-azabicyclo[3.1.0]hexan-3-yl)(3-ethyl-1-(pyrimidin-2-yl)-1H-pyrazol-4-yl)methanone] | > 100 nM | < 10 nM | – | – |
| Cc1nc(-c2ncccn2)sc1C(=O)N1C[C@@H]2[C@H](C1)[C@H]2Oc1cc(C(C)(C)N)cc(N2CCC(C(F)(F)F)CC2)n1 [Example 125, ((1R,5S,6s)-6-((4-(2-aminopropan-2-yl)-6-(4-(trifluoromethyl)piperidin-1-yl)pyridin-2-yl)oxy)-3-azabicyclo[3.1.0]hexan-3-yl)(4-methyl-2-(pyrimidin-2-yl)thiazol-5-yl)methanone] | > 100 nM | < 10 nM | – | – |
| Cc1nc(-c2ncccn2)sc1C(=O)N1C[C@@H]2[C@H](C1)[C@H]2Oc1cc(C(C)(C)N)cc(Cc2ccc(F)cc2)n1 [Example 126, ((1R,5S,6s)-6-((4-(2-aminopropan-2-yl)-6-(4-fluorobenzyl)pyridin-2-yl)oxy)-3-azabicyclo[3.1.0]hexan-3-yl)(4-methyl-2-(pyrimidin-2-yl)thiazol-5-yl)methanone] | – | – | > 100 nM | < 10 nM |
| Cc1nn(-c2ncccn2)cc1C(=O)N1C[C@@H]2[C@H](C1)[C@H]2Oc1cc(C(C)(C)N)cc(N2CCC(C)(C)CC2C)n1 (stereo partly drawn) [Example 127A, ent-((1R,5S,6s)-6-((4-(2-aminopropan-2-yl)-6-(2,4,4-trimethylpiperidin-1-yl)pyridin-2-yl)oxy)-3-azabicyclo[3.1.0]hexan-3-yl)(3-methyl-1-(pyrimidin-2-yl)-1H-pyrazol-4-yl)methanone] | > 100 nM | < 10 nM | – | – |
| Cc1nn(-c2ncccn2)cc1C(=O)N1C[C@@H]2[C@H](C1)[C@H]2Oc1cc(C(C)(C)N)cc(NC(C)C2CCCC2)n1 (stereo partly drawn) [Example 128A, ent-((1R,5S,6s)-6-((4-(2-aminopropan-2-yl)-6-((1-cyclopentylethyl)amino)pyridin-2-yl)oxy)-3-azabicyclo[3.1.0]hexan-3-yl)(3-methyl-1-(pyrimidin-2-yl)-1H-pyrazol-4-yl)methanone] | > 100 nM | < 10 nM | – | – |
| Cc1nn(-c2ncccn2)cc1C(=O)N1C[C@@H]2[C@H](C1)[C@H]2Oc1cc(C(C)(C)N)cc(N2CCC(C(F)(F)F)CC2C)n1 (stereo partly drawn) [Example 129A, ent-((1R,5S,6s)-6-((4-(2-aminopropan-2-yl)-6-(2-methyl-4-(trifluoromethyl)piperidin-1-yl)pyridin-2-yl)oxy)-3-azabicyclo[3.1.0]hexan-3-yl)(3-methyl-1-(pyrimidin-2-yl)-1H-pyrazol-4-yl)methanone] | > 100 nM | < 10 nM | – | – |
